Laboratory results taken from patent publication EP0795330A1, “Medicament for the treatment of insomnia” (ELI LILLY AND COMPANY, priority 1996, dated 1997).

Columns and labels:
[1] = target: T1, 5-HT1C receptor (Homo sapiens, UniProt P28335); experiment: pharmacological studies, 5-HT1C receptor activity
T1 sequence (P28335 33-458): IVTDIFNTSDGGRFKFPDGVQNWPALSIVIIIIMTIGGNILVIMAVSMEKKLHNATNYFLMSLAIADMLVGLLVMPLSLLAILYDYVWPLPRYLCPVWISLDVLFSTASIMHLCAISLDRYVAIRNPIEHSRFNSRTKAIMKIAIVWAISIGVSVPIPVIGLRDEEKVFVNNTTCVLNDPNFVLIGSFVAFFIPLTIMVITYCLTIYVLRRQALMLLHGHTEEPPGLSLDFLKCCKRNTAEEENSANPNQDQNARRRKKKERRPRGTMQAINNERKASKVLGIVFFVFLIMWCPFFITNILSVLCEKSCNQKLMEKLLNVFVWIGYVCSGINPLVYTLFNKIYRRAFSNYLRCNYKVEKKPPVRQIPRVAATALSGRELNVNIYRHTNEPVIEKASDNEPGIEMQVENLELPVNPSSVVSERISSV

[2] = detection of radiolabelled olanzapine in saliva; format: in vivo, patients
Experimental: For example, in the treatment of adult humans, dosages of from 5 to 25 mg per day may be used. A once a day dosage is normally sufficient. For treatment of insomnia, a dose range of from 5 to 100 mg, is suitable, while a dosage of from 5 to 25 mg per day is preferred.

Cc1cc2c(s1)Nc1ccccc1N=C2N1CCN(C)CC1 [olanzapine, 2-methyl-4-(4-methyl-l-piperazinyl)-10H-thieno[2,3-b][1,5] benzodiazepine]
activity at the 5-HT1C receptor [1]: active
detection in the saliva [2]: can be detected in the saliva
